Experimental findings from article PMC10583352, “B7H3 targeting gold nanocage pH-sensitive conjugates for precise and synergistic chemo-photothermal therapy against NSCLC” (Journal of Nanobiotechnology, 2023) are described below.

The subject of data set [1] is NCI-H1299 cells. Briefly: MTT cytotoxicity with/without NIR irradiation. Type of data set: cell-based, human. The conditions noted are these: without irradiation, 24 h. Here is the method:
The cytotoxicity of B7H3/Dox@GNCs on tumor cells was assessed using the MTT assay. Briefly, NCI-H1299 cells (4 × 10^3 cells/well) were seeded in a 96-well plate and incubated for 12 h until the cells were completely attached. […] The cells were cultured for another 12 h and cell viability was determined using the MTT method.

The subject of data set [2] is NCI-H1299 cells. Put plainly: Cell cycle analysis (PI/RNase, flow cytometry). Format: cell-based, human. The settings on record: without irradiation, 1 μg/mL Dox equivalent, 24 h. Here is the method: Next, Dox, GNCs, B7H3@GNCs, Dox@GNCs, or B7H3/Dox@GNCs (1 μg/mL Dox equivalent) were added to the culture medium. […] After the cells were fixed, RNase A solution was added to degrade RNA, and cells were stained with PI. Finally, the samples were subjected to cell cycle analysis using flow cytometry. ROS was detected using the method described above, except that the cells were stained with DCFH-DA and analyzed using flow cytometry.

Data set [3] deals with NCI-H1299 cell-derived xenograft. Put plainly: Antitumor efficacy in NCI-H1299 cell-derived xenograft. Format: in vivo, BALB/c nude mice. The settings on record: 14 day treatment. As for the experimental part:
The heterotopic xenograft mouse model of NSCLC was established by subcutaneous injection of 1.0 × 10^7 NCI-H1299 cells into the right dorsal side of BALB/c nude mice. The tumor size and body weight of the mice were measured and recorded every 2 days. The tumor volume (mm^3) was calculated using the formula: V = W^2 × L/2, where the width (W) and length (L) were measured using an electronic caliper. When the tumor volume reached 80–100 mm^3, mice were administered i.v. Dox at a dose of 3 mg/kg in the indicated formulation at 3 day intervals via the tail vein until euthanized.

Data set [4] in a line: Pharmacokinetics after single i.v. administration in rats (plasma Dox, LC-MS/MS). Format: in vivo, Sprague–Dawley rats. The conditions noted are these: 3 mg/kg Dox equivalent, Mean ± SD, n = 6. Here is the method:
The pharmacokinetic properties of B7H3/Dox@GNCs were studied using 18 male Sprague–Dawley rats, weighing 200 ± 20 g. The rats were randomly divided into three groups (n = 6 per group) and administered Dox•HCl, Dox@GNCs, and B7H3/Dox@GNCs (3 mg/kg Dox equivalent dose) intravenously (i.v.) through the tail vein. Next, 300 μL blood samples were collected into heparinized tubes from the venous plexus at 0, 0.05, 0.13, 0.25, 0.5, 1, 1.5, 2, 4, 6, 8, 12, and 24 h. After centrifugation at 3000 × g for 15 min, the plasma samples were obtained and stored at – 80 ℃ until analysis.
(§1) The collected tissues were diced into small pieces and homogenized with three volumes of saline. Subsequently, 100 μL plasma and tissue homogenate samples were spiked with 10 μL epirubicin as the internal standard and vortex-mixed with 300 μL methanol for 5 min. After 15 min of centrifugation at 15,000 × g and 4 °C to precipitate proteins, 5 μL supernatant aliquots were analyzed using HPLC–MS/MS.

A further data set concerns NCI-H1299 lung tumor. Put plainly: Histological examination (H&E, CD34 IHC) of tissues of xenograft-bearing mice. The settings on record: xenograft-bearing mice after i.v. administration. Format: in vivo.
The nature of data set [5]: Biodistribution of Dox in tumor-bearing mice. The settings on record: i.v. 3 mg/kg Dox. Type of data set: in vivo, BALB/c athymic nude male mice. Here is the method: as §1, with “A xenograft model was established using BALB/c athymic nude male mice (weight: 20 ± 2 g) and NCI-H1299 cells. […] The collected tissues were rinsed in ice-cold physiological saline to remove the superficial blood and other debris and stored at − 80 ℃ until analysis. The” for “The”

As a reminder, the IC50 is the concentration needed to halve the response being measured. High values mean lower potency, low ones higher potency. As usually defined, the Vd is the apparent volume that relates the amount in the body to the concentration in plasma or blood. Molecule `COc1cccc2c1C(=O)c1c(O)c3c(c(O)c1C2=O)C[C@@](O)(C(=O)CO)C[C@@H]3O[C@H]1C[C@H](N)[C@H](O)[C@H](C)O1.Cl` [Dox, doxorubicin hydrochloride] had a concentration for half-maximal inhibition (IC50) with NCI-H1299 cells [1] of 2.50 µg/mL. Besides, the “effect on cell cycle” value in the data set on NCI-H1299 cells [2] is “stagnated in the S phase and G2/M phase”. Further, in data set [3], the “body weight of mice” value was “drastic decrease in body weight”. Further, the tumor growth entry in data set [3] (xenograft mice, i.v.) is on record as “suppressed tumor growth”. Further, in data set [4], the CL is 2.17 ± 0 mL/min/kg, the “MRT0-∞” value is given as 9.43 ± 0.46 h, the T1/2 is 8.67 ± 0.34 h and the distribution volume (Vd) is on record as 1.64 ± 0.41 L/kg. The “heart tissue histology (H&E)” value in the data set with NCI-H1299 lung tumor is reported as “Dox-induced damage to the heart was observed”. In addition, the “Dox concentrations in heart, liver, lungs, spleen and kidneys versus Dox@GNCs and B7H3/Dox@GNCs groups” value in data set [5] is on record as “significantly higher”.
